# In ChEMBL document CHEMBL1201862, “PubChem BioAssay data set” (2004):
#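 96-well plates; 48 h exposure; 5 concentrations. Endpoints by linear interpolation between flanking doses. Not reached: highest tested concentration assigned. Here, GI50 denotes the concentration required for 50% inhibition of growth.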 Activity calls are given as the source filed them. Rule as the data show it: active = GI50 up to about 1.1 µM and inactive = higher.
# How the values were obtained:
# Experiment in all cases: NCI anticancer screen, dose series, 48 h
# 786-0 = test system: 786-0
# A498 = test system: A498
# A549 = test system: A549
# ACHN = test system: ACHN
# BT-549 = test system: BT-549
# CAKI-1 = test system: CAKI-1
# CCRF-CEM = test system: CCRF-CEM
# COLO 205 = test system: COLO 205
# DU-145 = test system: DU-145
# EKVX = test system: EKVX
# HCC 2998 = test system: HCC 2998
# HCT-116 = test system: HCT-116
# HCT-15 = test system: HCT-15
# HOP-62 = test system: HOP-62
# HOP-92 = test system: HOP-92
# HT-29 = test system: HT-29
# Hs-578T = test system: Hs-578T
# IGROV-1 = test system: IGROV-1
# K562 = test system: K562
# KM12 = test system: KM12
# LOX IMVI = test system: LOX IMVI
# M14 = test system: M14
# MCF7 = test system: MCF7
# MDA-MB-231 = test system: MDA-MB-231
# MDA-MB-435 = test system: MDA-MB-435
# MDA-N = test system: MDA-N
# MOLT-4 = test system: MOLT-4
# NCI-H226 = test system: NCI-H226
# NCI-H23 = test system: NCI-H23
# NCI-H460 = test system: NCI-H460
# NCI/ADR-RES = test system: NCI/ADR-RES
# OVCAR-3 = test system: OVCAR-3
# OVCAR-4 = test system: OVCAR-4
# OVCAR-5 = test system: OVCAR-5
# OVCAR-8 = test system: OVCAR-8
# PC-3 = test system: PC-3
# RXF 393 = test system: RXF 393
# SF-295 = test system: SF-295
# SK-MEL-28 = test system: SK-MEL-28
# SK-MEL-2 = test system: SK-MEL-2
# SK-MEL-5 = test system: SK-MEL-5
# SK-OV-3 = test system: SK-OV-3
# SNB-19 = test system: SNB-19
# SNB-75 = test system: SNB-75
# SW-620 = test system: SW-620
# TK-10 = test system: TK-10
# U-251 = test system: U-251
# UACC-257 = test system: UACC-257
# UACC-62 = test system: UACC-62
# UO-31 = test system: UO-31
# HL-60 = test system: HL-60
# Malme-3M = test system: Malme-3M
# NCI-H522 = test system: NCI-H522
# RPMI-8226 = test system: RPMI-8226
# SF-268 = test system: SF-268
# SF-539 = test system: SF-539
# SN12C = test system: SN12C
# SR = test system: SR
structure (smiles),measurement,setting,value
COc1ccc(-c2csc(Cc3nc4c(Br)cc(Br)cc4c(=O)n3-c3ccc(OC)cc3)n2)cc1,GI50,786-0,28.3 µM (inactive)
same,GI50,A498,45.3 µM (inactive)
same,GI50,A549,63.2 µM (inactive)
same,GI50,ACHN,43.7 µM (inactive)
same,GI50,BT-549,> 100 µM (inactive)
same,GI50,CAKI-1,94.4 µM (inactive)
same,GI50,CCRF-CEM,< 0.01 µM (active)
same,GI50,COLO 205,34.8 µM (inactive)
same,GI50,DU-145,> 100 µM (inactive)
same,GI50,EKVX,> 100 µM (inactive)
same,GI50,HCC 2998,> 100 µM (inactive)
same,GI50,HCT-116,30.4 µM (inactive)
same,GI50,HCT-15,24 µM
same,GI50,HOP-62,> 100 µM (inactive)
same,GI50,HOP-92,> 100 µM (inactive)
same,GI50,HT-29,48.9 µM (inactive)
same,GI50,Hs-578T,> 100 µM (inactive)
same,GI50,IGROV-1,73.3 µM (inactive)
same,GI50,K562,0.333 µM (active)
same,GI50,KM12,86.5 µM (inactive)
same,GI50,LOX IMVI,> 100 µM (inactive)
same,GI50,M14,20.9 µM (inactive)
same,GI50,MCF7,63.1 µM (inactive)
same,GI50,MDA-MB-231,45.7 µM (inactive)
same,GI50,MDA-MB-435,15.9 µM (inactive)
same,GI50,MDA-N,3.7 µM (inactive)
same,GI50,MOLT-4,25.5 µM (inactive)
same,GI50,NCI-H226,> 100 µM (inactive)
same,GI50,NCI-H23,96.2 µM (inactive)
same,GI50,NCI-H460,54 µM (inactive)
same,GI50,NCI/ADR-RES,50.9 µM (inactive)
same,GI50,OVCAR-3,> 100 µM (inactive)
same,GI50,OVCAR-4,> 100 µM (inactive)
same,GI50,OVCAR-5,56.4 µM (inactive)
same,GI50,OVCAR-8,> 100 µM (inactive)
same,GI50,PC-3,28.9 µM (inactive)
same,GI50,RXF 393,> 100 µM (inactive)
same,GI50,SF-295,59.4 µM (inactive)
same,GI50,SK-MEL-28,24.3 µM (inactive)
same,GI50,SK-MEL-2,48 µM (inactive)
same,GI50,SK-MEL-5,20.3 µM (inactive)
same,GI50,SK-OV-3,51.8 µM (inactive)
same,GI50,SNB-19,18.9 µM (inactive)
same,GI50,SNB-75,> 100 µM (inactive)
same,GI50,SW-620,67 µM (inactive)
same,GI50,TK-10,56.6 µM (inactive)
same,GI50,U-251,30.3 µM (inactive)
same,GI50,UACC-257,> 100 µM (inactive)
same,GI50,UACC-62,53.3 µM (inactive)
same,GI50,UO-31,35.2 µM (inactive)
O=C(O)c1ccn(-c2cccc(-n3ccc(C(=O)O)n3)n2)n1,GI50,786-0,> 100 µM (inactive)
same,GI50,A549,> 100 µM (inactive)
same,GI50,ACHN,> 100 µM (inactive)
same,GI50,BT-549,> 100 µM (inactive)
same,GI50,CAKI-1,> 100 µM (inactive)
same,GI50,CCRF-CEM,> 100 µM (inactive)
same,GI50,COLO 205,> 100 µM (inactive)
same,GI50,DU-145,> 100 µM (inactive)
same,GI50,EKVX,> 100 µM (inactive)
same,GI50,HCT-116,> 100 µM (inactive)
same,GI50,HCT-15,> 100 µM
same,GI50,HL-60,> 100 µM (inactive)
same,GI50,HOP-62,> 100 µM (inactive)
same,GI50,HT-29,> 100 µM (inactive)
same,GI50,Hs-578T,> 100 µM (inactive)
same,GI50,IGROV-1,> 100 µM (inactive)
same,GI50,K562,> 100 µM (inactive)
same,GI50,KM12,> 100 µM (inactive)
same,GI50,LOX IMVI,> 100 µM (inactive)
same,GI50,M14,> 100 µM (inactive)
same,GI50,MCF7,> 100 µM (inactive)
same,GI50,MDA-MB-231,> 100 µM (inactive)
same,GI50,MDA-MB-435,> 100 µM (inactive)
same,GI50,MDA-N,> 100 µM (inactive)
same,GI50,MOLT-4,> 100 µM (inactive)
same,GI50,Malme-3M,> 100 µM (inactive)
same,GI50,NCI-H226,> 100 µM (inactive)
same,GI50,NCI-H23,> 100 µM (inactive)
same,GI50,NCI-H460,> 100 µM (inactive)
same,GI50,NCI-H522,> 100 µM (inactive)
same,GI50,NCI/ADR-RES,> 100 µM (inactive)
same,GI50,OVCAR-3,> 100 µM (inactive)
same,GI50,OVCAR-4,> 100 µM (inactive)
same,GI50,OVCAR-5,> 100 µM (inactive)
same,GI50,OVCAR-8,> 100 µM (inactive)
same,GI50,PC-3,> 100 µM (inactive)
same,GI50,RPMI-8226,> 100 µM (inactive)
same,GI50,RXF 393,> 100 µM (inactive)
same,GI50,SF-268,> 100 µM (inactive)
same,GI50,SF-295,> 100 µM (inactive)
same,GI50,SF-539,> 100 µM (inactive)
same,GI50,SK-MEL-28,> 100 µM (inactive)
same,GI50,SK-MEL-2,> 100 µM (inactive)
same,GI50,SK-MEL-5,> 100 µM (inactive)
same,GI50,SK-OV-3,> 100 µM (inactive)
same,GI50,SN12C,> 100 µM (inactive)
same,GI50,SNB-19,> 100 µM (inactive)
same,GI50,SNB-75,> 100 µM (inactive)
same,GI50,SR,> 100 µM (inactive)
same,GI50,SW-620,> 100 µM (inactive)
same,GI50,TK-10,> 100 µM (inactive)
same,GI50,U-251,> 100 µM (inactive)
same,GI50,UACC-257,> 100 µM (inactive)
same,GI50,UACC-62,> 100 µM (inactive)
same,GI50,UO-31,> 100 µM (inactive)
